Data taken from patent publication US6492434B1, “Methods for inhibiting skin ulceration by use of cyanoacrylate adhesives” (Flowers PArk Ltd., priority 1995, dated 2002).

Test system: decubitus ulcers
Experiment: Evaluation of n-butyl cyanoacrylate adhesive on inhibition of decubitus ulcers in 17 adult nursing home patients
Type: in vivo, human
Description: An evaluation of the effect of n-butyl cyanoacrylate adhesive on the inhibition of decubitus ulcers in 17 adult patients located in nine different nursing homes was conducted. In this example, 17 patients were selected based on a history of recurring decubitus ulcer formation or, based on medical evaluation, were deemed to be at high risk of developing decubitus ulcers. A prophylactic treatment regimen was then employed on these patients which regimen consisted of using conventional pressure ulcer preventative practices primarily involving periodic rotation of the patient as well as application of an n-butyl cyanoacrylate adhesive composition onto the intact skin areas which appeared likely to develop pressure ulcers by virtue of irritation and reddening of the skin or unbroken blister formation which is classified as a stage I decubitus ulcer or by application of the n-butyl cyanoacrylate composition onto intact skin adjacent to type II decubitus ulcers. Application of n-butyl cyanoacrylate consisted of application of about 1-5 drops of the n-butyl cyanoacrylate composition onto the surface skin area prone to ulceration wherein each drop corresponds to about 0.03 ml of cyanoacrylate.
The specific amount of n-butyl cyanoacrylate adhesive and point of application of the adhesive for each patient are set forth in the following Table I:
After application, the cyanoacrylate adhesive was allowed to form a polymeric film and, on average, reapplication of the adhesive was conducted every 24 hours until the evaluation was completed.

Q: Which results are given for `C=C(C#N)C(=O)OCCCC` [n-butyl cyanoacrylate adhesive, n-butyl-2-cyanoacrylate]?
A: expansion of stage II decubitus ulcer to adjacent skin areas (all patients treated in skin areas adjacent to stage II decubitus ulcer, plus conventional preventative practices): minimal expansion of the ulcer; progression to stage II decubitus ulcer formation (broken skin) (all patients with redness/irritation or blistering (stage I) of intact skin, plus conventional pressure ulcer preventative practices): did not progress to stage II decubitus ulcer formation; RESULT (patient 1, heel, redness 3 cm, 2 drops, reapplied about every 24 h, plus conventional preventative practices): NO BREAKDOWN OF SKIN ON HEEL; RESULT (patient 2, heel, redness 3 cm, 2 drops, reapplied about every 24 h, plus conventional practices): LESS PERSPIRATION AND NO IRRITATION; RESULT (patient 3, heels (2), blister (Stage I) 3-4 cm, 2 drops, reapplied about every 24 h, plus conventional practices): NO BREAKDOWN OF BLISTER TO STAGE II; RESULT (patient 4, heels (2) and elbows (2), redness 3-5 cm, 2 drops, reapplied about every 24 h, plus conventional practices): NO SKIN BREAKDOWN ON HEELS OR ELBOWS; RESULT (patient 5, cheek, redness ½-3 in, 2 drops, reapplied about every 24 h, plus conventional practices): NO IRRITATION DEVELOPED; RESULT (patient 6, lower leg, bruise 2-3 in, 4-5 drops, reapplied about every 24 h, plus conventional practices, listed as N-BUTYL CYANOACRYLATE ADHESIVES): NO SKIN BREAKDOWN; RESULT (patient 7, shoulder, bony prominence 3-4 cm, 3-4 drops, reapplied about every 24 h, plus conventional practices, listed as N-BUTYL CYANOACRYLATE ADHESIVES): SKIN DID NOT BREAKDOWN; RESULT (patient 8, hip, bony prominence 3-4 cm, 3-4 drops, reapplied about every 24 h, plus conventional practices): NO SKIN BREAKDOWN; RESULT (patient 9, heels (2), redness 5 cm, 1 drop, reapplied about every 24 h, plus conventional practices): NO IRRITATION/REDDENING LEFT; RESULT (patient 10, hip, blister (Stage I) 3-4 cm, 2 drops, treatment stopped): WARMING SENSATION UPON APPLICATION -; RESULT (patient 11, top of foot, redness 2-5 cm, 1 drop, reapplied about every 24 h, plus conventional practices): NO IRRITATION/REDDENlNG LEFT; RESULT (patient 12, heel, redness (scabbed over - healed stage II) 6-8 cm, 3 drops, reapplied about every 24 h, plus conventional practices): REDNESS HEALED UP; RESULT (patient 13, knees & heels, redness 2.5 cm, 3 drops, patient passed away due to other conditions): IRRITATION IMPROVED BUT PATIENT; RESULT (patient 14, heel, skin redness around Stage II ulcer 2.5 cm, 3 drops, reapplied about every 24 h, plus conventional practices): NO IRRITATION EVIDENT - HEELS ALMOST HEALED; RESULT (patient 15, heels (2), redness 2.5 cm, 3 drops, reapplied about every 24 h, plus conventional practices): PATIENT'S HEELS LOOK BETTER,; RESULT (patient 16, hip, redness (healed Stage II ulcer) 2 cm, 2-3 drops, reapplied about every 24 h, plus conventional practices): NO FURTHER BREAKDOWN, REDDENING STILL
